Data from patent US9295258B2, “Synergistic pesticidal compositions and related methods” (DOW AGROSCIENCES LLC, priority 2013, dated 2016).

What was measured:
[1] = system: Cotton Aphid, Aphis gossypii (Glover); assay: Cotton aphid percent control on treated cotton plants (track sprayer), synergy by Colby's equation; assay type: in vivo; conditions: cotton plants at cotyledon stage
Source text: (§1) The method described in Colby S. R., “Calculating Synergistic and Antagonistic Responses of Herbicide Combinations,” Weeds, 1967, 15, 20-22 was used to determine an existence of synergic effect between the ecdysone receptor agonist compound and the pesticide in the formulated pesticidal composition. In this method, the percent insect control of the formulated pesticidal composition as observed in the study was compared to the “expected” percent control (E) as calculated by equation (1) (hereinafter “Colby's equation”) below: […]
(§2) X is the percentage of control with the first pesticide at a given rate (p),
(§3) Y is the percentage of control with the second pesticide at a given rate (q), and
E is the expected control by the first and second pesticide at a rate of p+q. […]
Cotton plants at cotyledon stage were treated with different active compounds using track sprayer. […] The percent control of the pesticidal composition against cotton aphid, Aphis gossypii (Glover), was determined as the “Observed” action, and compared to those obtained by using about 0.002 weight % of compound II, and using about 0.005 weight % of methoxyfenozide alone. The “Colby's Expected Action” was calculated using Colby's equation as discussed previously.

[2] = system: Diamondback Moth, Plutella xylostella; assay: Diamondback moth percent control on treated cabbage leaf discs (track sprayer), synergy by Colby's equation; assay type: in vivo
Source text: as §1, §2, §3
E is the expected control by the first and second pesticide at a rate of p+q.
Bioassays were performed for different active compounds. […] The “Colby's Expected Action” was calculated using Colby's equation as discussed previously.
(§4) Bioassays were performed for different active compounds. […] The “Colby's Expected Action” was calculated using Colby's equation as discussed previously. […]
as §4

COc1cccc(C(=O)NN(C(=O)c2cc(C)cc(C)c2)C(C)(C)C)c1C [Methoxyfenozide, 3-methoxy-2-methylbenzoic acid 2-(3,5-dimethylbenzoyl)-2-(1,1-dimethylethyl)hydrazide]
% Control Three Days After Treatment ([1]; Methoxyfenozide alone, dose rate 0.005 weight %): 23%
Average % Control Five Days After Treatment ([2]; Methoxyfenozide alone (0:1), average of 0.02, 0.005, 0.00125 and 0.0003125 weight %): 15.9%

CCN(C(=O)CCSCCC(F)(F)F)c1cn(-c2cccnc2)nc1Cl [Compound I, N-(3-chloro-1-(pyridin-3-yl)-1H-pyrazol-4-yl)-N-ethyl-3-((3,3,3-trifluoropropyl)thio)propanamide]
Average % Control Five Days After Treatment ([2]; Compound I alone (1:0), average of 0.0025, 0.000625 and 0.0001531 weight %): 7.58%

CCN(C(=O)CC[S+]([O-])CCC(F)(F)F)c1cn(-c2cccnc2)nc1Cl (stereo not shown) [Compound II, N-(3-chloro-1-(pyridin-3-yl)-1H-pyrazol-4-yl)-N-ethyl-3-((3,3,3-trifluoropropyl)sulfinyl)propanamide]
% Control Three Days After Treatment ([1]; Compound II alone, dose rate 0.002 weight %): 28%
